Activity calls are given as the source filed them.

Assay [1] addresses T1, Interleukin-1 receptor-associated kinase 4 (Homo sapiens, UniProt Q9NWZ3).
T1 sequence (Q9NWZ3 whole entry): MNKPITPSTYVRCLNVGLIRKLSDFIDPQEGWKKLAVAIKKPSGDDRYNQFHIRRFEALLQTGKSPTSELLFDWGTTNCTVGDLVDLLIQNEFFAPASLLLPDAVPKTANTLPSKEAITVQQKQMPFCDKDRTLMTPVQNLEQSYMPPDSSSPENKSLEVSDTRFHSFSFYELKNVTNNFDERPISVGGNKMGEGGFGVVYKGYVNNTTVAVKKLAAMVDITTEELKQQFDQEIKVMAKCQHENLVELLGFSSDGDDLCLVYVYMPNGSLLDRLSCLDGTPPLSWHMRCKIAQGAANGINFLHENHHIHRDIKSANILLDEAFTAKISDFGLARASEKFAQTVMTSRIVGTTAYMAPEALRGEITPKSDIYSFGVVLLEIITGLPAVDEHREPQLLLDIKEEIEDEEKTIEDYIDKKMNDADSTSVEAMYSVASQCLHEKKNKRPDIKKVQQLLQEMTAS
It counts as functional.

For assay [2], the target named is Serine/threonine-protein kinase pim-1 (Homo sapiens, UniProt P11309). It counts as functional.
Serine/threonine-protein kinase pim-1, sequence (P11309 whole entry): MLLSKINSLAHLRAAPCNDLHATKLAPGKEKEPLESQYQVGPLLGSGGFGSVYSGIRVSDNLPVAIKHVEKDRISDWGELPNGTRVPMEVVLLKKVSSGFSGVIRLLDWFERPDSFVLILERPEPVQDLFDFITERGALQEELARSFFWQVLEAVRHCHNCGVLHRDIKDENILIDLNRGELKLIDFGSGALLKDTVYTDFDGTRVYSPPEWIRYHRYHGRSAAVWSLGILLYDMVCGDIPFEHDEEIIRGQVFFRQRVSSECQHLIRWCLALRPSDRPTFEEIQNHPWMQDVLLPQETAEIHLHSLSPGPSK
The target in assay [3] is MAP kinase-interacting serine/threonine-protein kinase 2 (Homo sapiens, UniProt Q9HBH9). The assay is classed as functional.
MAP kinase-interacting serine/threonine-protein kinase 2, sequence (Q9HBH9 whole entry): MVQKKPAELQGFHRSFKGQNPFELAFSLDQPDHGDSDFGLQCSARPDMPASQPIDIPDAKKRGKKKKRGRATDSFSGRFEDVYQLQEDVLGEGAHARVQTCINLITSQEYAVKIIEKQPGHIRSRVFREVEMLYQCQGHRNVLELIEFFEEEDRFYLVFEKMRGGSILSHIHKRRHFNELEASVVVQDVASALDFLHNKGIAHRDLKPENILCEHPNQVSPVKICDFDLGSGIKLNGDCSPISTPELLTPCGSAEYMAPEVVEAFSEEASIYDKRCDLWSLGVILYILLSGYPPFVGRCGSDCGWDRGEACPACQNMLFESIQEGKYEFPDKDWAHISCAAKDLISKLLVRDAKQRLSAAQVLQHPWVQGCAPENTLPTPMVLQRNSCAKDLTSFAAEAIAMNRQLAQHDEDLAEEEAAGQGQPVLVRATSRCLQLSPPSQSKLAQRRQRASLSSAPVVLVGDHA
Assay [4] deals with Glycogen synthase kinase-3 beta (Homo sapiens, UniProt P49841). It counts as functional.
Glycogen synthase kinase-3 beta, sequence (P49841 whole entry): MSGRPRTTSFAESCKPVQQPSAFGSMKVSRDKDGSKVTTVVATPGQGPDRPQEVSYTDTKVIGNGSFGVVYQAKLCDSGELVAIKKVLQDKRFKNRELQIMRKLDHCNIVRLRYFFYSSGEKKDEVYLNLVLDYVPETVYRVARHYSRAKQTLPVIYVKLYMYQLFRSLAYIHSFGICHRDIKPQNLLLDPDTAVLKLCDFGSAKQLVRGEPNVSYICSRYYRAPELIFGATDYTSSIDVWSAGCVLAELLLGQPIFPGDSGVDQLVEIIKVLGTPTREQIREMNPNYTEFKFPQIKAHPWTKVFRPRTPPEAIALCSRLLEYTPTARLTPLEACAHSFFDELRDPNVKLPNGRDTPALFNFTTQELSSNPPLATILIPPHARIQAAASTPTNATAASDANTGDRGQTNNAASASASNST
Assay [5] deals with cAMP-dependent protein kinase catalytic subunit alpha (Homo sapiens, UniProt P17612). It counts as functional.
Assay [6] addresses Homeodomain-interacting protein kinase 2 (Homo sapiens, UniProt Q9H2X6). It counts as functional.
Assay [7] addresses Cell division cycle 7-related protein kinase (Homo sapiens, UniProt O00311). It counts as functional.
For assay [8], the target named is Dual specificity protein kinase CLK4 (Homo sapiens, UniProt Q9HAZ1). It counts as functional.
Dual specificity protein kinase CLK4, sequence (Q9HAZ1 whole entry): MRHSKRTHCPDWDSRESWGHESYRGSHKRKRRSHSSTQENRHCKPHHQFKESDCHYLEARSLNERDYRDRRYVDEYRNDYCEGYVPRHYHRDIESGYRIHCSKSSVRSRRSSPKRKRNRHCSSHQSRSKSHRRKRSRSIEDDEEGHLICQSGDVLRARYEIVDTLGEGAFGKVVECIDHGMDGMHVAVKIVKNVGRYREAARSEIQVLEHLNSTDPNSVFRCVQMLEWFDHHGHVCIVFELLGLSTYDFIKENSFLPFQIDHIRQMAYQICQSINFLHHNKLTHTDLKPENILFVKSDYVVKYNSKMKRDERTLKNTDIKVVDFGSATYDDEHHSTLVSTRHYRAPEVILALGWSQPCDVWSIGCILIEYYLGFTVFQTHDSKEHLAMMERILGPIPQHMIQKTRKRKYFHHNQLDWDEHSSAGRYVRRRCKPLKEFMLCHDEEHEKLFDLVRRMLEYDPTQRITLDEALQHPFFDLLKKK
In assay [9] the target is Mitogen-activated protein kinase kinase kinase kinase 4 (Homo sapiens, UniProt O95819). The assay is classed as functional.
The target of assay [10] is T2, High affinity choline transporter 1 (Homo sapiens, UniProt Q9GZV3).
T2 sequence (Q9GZV3 whole entry): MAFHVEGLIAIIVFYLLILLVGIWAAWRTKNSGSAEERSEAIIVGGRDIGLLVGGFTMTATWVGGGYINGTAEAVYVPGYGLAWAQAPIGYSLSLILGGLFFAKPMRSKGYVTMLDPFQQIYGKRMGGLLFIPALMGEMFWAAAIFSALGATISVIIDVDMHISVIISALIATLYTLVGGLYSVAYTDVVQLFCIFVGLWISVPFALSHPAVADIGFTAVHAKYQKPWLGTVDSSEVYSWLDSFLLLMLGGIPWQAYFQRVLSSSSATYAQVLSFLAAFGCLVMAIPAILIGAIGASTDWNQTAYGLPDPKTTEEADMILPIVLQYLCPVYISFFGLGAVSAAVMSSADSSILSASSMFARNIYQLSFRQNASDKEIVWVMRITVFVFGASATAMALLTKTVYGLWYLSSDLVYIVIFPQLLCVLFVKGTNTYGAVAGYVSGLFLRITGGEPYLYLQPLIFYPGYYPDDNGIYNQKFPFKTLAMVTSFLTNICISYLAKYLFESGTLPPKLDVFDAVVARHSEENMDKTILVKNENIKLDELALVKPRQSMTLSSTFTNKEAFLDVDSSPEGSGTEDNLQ
The assay is described as follows: human choline transporter blockers, potency – cell-based, 5-point CRC, membrane potential dye, dose response (AID 504840). It counts as functional.

Assay [11] deals with T2, High affinity choline transporter 1. Kind of assay: human choline transporter blockers, potency – cell-based, 10-point CRC, membrane potential dye, dose response (AID 588401).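 Also: membrane potential dye fluorescence of choline-evoked depolarization via CHT.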 The assay is classed as functional.
Assay [12] concerns the target T3, Apoptotic protease-activating factor 1 (Homo sapiens, UniProt O14727).
T3 sequence (O14727 whole entry): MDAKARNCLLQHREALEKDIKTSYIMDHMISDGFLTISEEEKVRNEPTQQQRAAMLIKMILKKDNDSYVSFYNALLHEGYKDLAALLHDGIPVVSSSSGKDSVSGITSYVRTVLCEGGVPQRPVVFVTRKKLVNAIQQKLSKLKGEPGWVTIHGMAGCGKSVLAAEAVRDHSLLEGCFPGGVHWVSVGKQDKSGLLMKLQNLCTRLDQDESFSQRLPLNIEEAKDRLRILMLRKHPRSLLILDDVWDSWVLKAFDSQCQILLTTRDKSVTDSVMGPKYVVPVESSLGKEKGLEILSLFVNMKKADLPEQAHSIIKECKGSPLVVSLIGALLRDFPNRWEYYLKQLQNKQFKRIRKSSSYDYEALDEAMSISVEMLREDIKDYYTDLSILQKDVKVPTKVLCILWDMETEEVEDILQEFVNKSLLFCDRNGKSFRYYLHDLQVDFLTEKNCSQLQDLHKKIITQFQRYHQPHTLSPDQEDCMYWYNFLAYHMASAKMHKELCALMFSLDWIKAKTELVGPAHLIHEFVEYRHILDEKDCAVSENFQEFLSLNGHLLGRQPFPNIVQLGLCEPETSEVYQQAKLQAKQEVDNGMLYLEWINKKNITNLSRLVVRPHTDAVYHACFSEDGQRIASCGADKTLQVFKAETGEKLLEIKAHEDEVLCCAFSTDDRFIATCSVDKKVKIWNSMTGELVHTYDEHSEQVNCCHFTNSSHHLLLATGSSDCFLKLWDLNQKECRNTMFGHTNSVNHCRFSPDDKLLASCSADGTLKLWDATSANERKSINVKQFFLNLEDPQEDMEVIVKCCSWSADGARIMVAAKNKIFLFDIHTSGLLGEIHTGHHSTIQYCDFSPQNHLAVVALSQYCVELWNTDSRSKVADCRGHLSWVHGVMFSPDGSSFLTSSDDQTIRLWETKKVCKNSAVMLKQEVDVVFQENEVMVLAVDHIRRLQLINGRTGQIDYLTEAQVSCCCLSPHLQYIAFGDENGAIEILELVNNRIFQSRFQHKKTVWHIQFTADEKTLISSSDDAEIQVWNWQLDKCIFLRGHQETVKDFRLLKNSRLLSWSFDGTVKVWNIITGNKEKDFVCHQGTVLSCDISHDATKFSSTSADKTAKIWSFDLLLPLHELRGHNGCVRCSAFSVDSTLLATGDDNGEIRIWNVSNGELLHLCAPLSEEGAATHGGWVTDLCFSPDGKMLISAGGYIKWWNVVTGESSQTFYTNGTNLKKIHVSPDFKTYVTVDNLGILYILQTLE
Kind of assay: SAR analysis of small molecule Activators of Apaf-1 in a Fluorescent assay. It counts as functional. To be noted: read-out: EC50_Mean.

The nature of assay [13]: A cytotoxicity screen of small molecule inhibitors of the PhoP region in Salmonella typhi identified in the primary screen. [Related pubchem assays: 1850, 1864, 1985 ]. The assay is classed as functional.
A further assay concerns the target Melanocortin receptor 4 (Homo sapiens, UniProt P32245). The assay is described as follows: inhibitors of MC4R cAMP signaling – cell-based, TR-FRET, biased antagonists, dose response (AID 602298).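 Also: antagonist potency against agonist-stimulated cAMP production.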 It counts as functional.
Assay [14] is described as follows: cAMP pathway inhibition in counterscreen cell line – TR-FRET cAMP detection, counter-screen for MC4R biased antagonist project, dose response (AID 602305).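 Also: U2OS cells stimulated with forskolin near its EC80 as the cAMP inducer; potency is for inhibition of forskolin-stimulated cAMP signaling.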 It counts as functional, cell-based.
Assay [15] addresses 72 kDa type IV collagenase (Homo sapiens, UniProt P08253). Kind of assay: Dose Response validation of uHTS RPN11 inhibitor hits using a MMP-2 Fluorescence assay. The assay is classed as functional.
Assay [16] deals with T4, Carboxy-terminal domain RNA polymerase II polypeptide A small phosphatase 1 (Homo sapiens, UniProt Q9GZU7).
T4 sequence (Q9GZU7 whole entry): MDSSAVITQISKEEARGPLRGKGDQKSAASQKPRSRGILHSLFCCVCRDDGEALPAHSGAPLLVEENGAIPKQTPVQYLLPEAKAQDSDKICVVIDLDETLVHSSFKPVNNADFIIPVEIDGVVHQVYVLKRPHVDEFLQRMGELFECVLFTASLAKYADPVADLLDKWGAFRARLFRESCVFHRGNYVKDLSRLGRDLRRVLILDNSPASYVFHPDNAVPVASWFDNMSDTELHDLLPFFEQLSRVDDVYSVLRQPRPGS
The assay is described as follows: CTDSP1 inhibitors, concentration-response, biochemical, absorbance readout, ultra-high-throughput screen actives (AID 540297). The assay is classed as functional.

The next assay has as its target Prothrombin (Bos taurus, UniProt P00735). The assay is described as follows: thrombin protease inhibitors – biochemical, fluorescence polarization, uHTS hits, dose response (AID 602369). The assay is classed as functional.
Assay [17] concerns the target 26S proteasome non-ATPase regulatory subunit 14 (Homo sapiens, UniProt O00487). Kind of assay: inhibition of proteasome subunit RPN11 – biochemical, fluorescence polarization, uHTS hits, confirmation (AID 602368). It counts as functional.
Assay [18] has as its system HEK293. The assay is described as follows: membrane integrity loss in HEK cells – cell-based, fluorescence, cytotoxicity control for IDE activator project, dose response (AID 588440).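 Also: cytotoxicity by LDH release measuring loss of membrane integrity.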 It counts as functional. To be noted: Homo sapiens.
Assay [19] addresses T3, Apoptotic protease-activating factor 1. The assay is classed as functional.
The target in assay [20] is T5, Insulin-degrading enzyme (Homo sapiens, UniProt P14735).
T5 sequence (P14735 whole entry): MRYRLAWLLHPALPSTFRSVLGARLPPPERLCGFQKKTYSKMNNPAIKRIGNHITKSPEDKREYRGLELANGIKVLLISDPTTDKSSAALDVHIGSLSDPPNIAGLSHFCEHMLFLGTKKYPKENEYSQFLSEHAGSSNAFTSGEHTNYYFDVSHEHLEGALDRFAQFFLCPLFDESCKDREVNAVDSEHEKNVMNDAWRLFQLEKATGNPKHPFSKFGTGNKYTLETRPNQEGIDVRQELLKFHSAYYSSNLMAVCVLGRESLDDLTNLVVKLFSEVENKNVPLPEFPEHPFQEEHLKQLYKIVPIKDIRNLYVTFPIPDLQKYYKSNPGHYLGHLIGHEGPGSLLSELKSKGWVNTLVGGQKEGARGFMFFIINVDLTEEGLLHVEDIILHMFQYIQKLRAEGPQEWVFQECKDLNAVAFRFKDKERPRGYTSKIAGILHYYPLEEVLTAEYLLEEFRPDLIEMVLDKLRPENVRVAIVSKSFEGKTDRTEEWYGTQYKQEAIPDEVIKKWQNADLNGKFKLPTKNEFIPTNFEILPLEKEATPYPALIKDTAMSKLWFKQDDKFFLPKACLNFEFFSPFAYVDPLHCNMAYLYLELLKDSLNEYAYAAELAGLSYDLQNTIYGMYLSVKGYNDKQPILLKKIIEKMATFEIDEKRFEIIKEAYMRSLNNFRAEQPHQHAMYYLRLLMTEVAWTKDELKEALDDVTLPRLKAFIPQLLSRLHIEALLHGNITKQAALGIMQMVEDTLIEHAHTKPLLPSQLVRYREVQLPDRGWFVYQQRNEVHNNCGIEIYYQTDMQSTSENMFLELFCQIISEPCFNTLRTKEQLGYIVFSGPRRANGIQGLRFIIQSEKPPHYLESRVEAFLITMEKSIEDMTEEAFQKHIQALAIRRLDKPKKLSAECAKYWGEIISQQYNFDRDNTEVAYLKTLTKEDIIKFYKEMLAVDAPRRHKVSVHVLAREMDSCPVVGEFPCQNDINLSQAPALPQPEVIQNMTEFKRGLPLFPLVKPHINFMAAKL
Kind of assay: cellular IDE activation of Abeta substrate cleavage – fluorescence polarization, HEK cells, dose response (AID 588439). It counts as functional, cell-based.

For assay [21], the system named is HEK293. The assay is described as follows: optical interference in Abeta FP readout, dose response, artefact control for IDE activator project, biochemical, fluorescence polarization (AID 588442). To be noted: Homo sapiens. It counts as functional, cell-based.
Assay [22] deals with T5, Insulin-degrading enzyme. The assay is described as follows: recombinant IDE activation, cell-free – biochemical, fluorescence polarization, counter-screen for IDE activator project, dose response (AID 588681).
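For EC50 Mean in this document: caspase-3 cleavage of fluorogenic Rh110 DEVD substrate downstream of apoptosome activation.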

Melanocortin receptor 4, sequence (P32245 whole entry): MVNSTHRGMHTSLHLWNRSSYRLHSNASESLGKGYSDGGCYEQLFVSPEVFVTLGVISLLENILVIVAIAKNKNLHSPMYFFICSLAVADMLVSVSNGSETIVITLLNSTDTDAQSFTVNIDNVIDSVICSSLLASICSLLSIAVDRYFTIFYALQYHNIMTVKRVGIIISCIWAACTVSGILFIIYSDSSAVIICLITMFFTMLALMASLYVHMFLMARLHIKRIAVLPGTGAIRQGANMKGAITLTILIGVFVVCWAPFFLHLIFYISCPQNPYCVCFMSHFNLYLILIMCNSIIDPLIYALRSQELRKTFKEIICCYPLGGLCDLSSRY
72 kDa type IV collagenase, sequence (P08253 whole entry, the tested form may be a part): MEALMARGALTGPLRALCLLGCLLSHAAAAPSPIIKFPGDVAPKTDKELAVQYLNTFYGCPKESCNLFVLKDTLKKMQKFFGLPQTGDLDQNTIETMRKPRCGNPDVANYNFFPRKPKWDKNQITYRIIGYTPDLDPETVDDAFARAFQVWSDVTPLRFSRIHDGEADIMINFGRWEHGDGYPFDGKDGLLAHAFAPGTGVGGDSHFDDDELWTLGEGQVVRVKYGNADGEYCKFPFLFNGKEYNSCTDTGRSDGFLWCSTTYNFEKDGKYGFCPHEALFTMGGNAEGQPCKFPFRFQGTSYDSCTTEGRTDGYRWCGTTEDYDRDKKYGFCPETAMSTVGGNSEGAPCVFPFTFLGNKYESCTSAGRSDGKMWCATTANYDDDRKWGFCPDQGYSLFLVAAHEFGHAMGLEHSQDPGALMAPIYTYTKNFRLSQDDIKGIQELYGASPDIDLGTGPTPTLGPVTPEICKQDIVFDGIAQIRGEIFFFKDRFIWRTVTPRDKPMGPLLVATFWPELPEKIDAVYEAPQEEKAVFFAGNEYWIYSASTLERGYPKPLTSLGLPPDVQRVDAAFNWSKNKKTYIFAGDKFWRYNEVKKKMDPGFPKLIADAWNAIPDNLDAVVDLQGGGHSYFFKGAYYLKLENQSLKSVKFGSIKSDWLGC
Homeodomain-interacting protein kinase 2, sequence (Q9H2X6 whole entry): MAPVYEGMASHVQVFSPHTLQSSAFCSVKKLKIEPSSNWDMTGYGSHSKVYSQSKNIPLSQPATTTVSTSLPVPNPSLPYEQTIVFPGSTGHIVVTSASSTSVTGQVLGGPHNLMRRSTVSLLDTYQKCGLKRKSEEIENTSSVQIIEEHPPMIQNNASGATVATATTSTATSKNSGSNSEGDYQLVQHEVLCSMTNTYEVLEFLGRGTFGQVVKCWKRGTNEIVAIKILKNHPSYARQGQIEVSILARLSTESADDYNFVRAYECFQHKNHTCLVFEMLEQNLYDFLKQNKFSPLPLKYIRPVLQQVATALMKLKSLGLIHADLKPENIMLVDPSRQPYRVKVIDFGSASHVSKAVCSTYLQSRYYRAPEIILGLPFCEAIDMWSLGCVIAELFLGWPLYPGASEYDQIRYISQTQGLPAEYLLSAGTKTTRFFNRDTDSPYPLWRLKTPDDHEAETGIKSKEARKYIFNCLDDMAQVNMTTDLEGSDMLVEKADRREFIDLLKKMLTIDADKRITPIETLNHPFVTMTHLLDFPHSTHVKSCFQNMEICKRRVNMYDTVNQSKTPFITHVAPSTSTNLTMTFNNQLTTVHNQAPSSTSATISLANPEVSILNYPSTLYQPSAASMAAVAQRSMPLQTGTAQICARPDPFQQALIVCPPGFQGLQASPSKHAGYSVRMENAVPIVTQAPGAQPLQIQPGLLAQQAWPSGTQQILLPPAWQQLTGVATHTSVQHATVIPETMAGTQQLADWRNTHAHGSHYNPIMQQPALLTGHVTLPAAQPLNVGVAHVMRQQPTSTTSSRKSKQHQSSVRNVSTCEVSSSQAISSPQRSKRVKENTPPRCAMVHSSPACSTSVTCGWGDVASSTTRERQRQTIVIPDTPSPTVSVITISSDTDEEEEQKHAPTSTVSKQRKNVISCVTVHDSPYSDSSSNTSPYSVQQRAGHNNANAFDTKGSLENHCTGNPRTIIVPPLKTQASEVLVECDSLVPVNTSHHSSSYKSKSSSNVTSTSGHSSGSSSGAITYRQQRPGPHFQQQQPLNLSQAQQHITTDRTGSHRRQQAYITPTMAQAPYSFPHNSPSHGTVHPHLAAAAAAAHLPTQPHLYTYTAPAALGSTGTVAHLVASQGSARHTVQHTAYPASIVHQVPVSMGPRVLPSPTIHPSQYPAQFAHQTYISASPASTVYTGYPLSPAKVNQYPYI
26S proteasome non-ATPase regulatory subunit 14, sequence (O00487 whole entry): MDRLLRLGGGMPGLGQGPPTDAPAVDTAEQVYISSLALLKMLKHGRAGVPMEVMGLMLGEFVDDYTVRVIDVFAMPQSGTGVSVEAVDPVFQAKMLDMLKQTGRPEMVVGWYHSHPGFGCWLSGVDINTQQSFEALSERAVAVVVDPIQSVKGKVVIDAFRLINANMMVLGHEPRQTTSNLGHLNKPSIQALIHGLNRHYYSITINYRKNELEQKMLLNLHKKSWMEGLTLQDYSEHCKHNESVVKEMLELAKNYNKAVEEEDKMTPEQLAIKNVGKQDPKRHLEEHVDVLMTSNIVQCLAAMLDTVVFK
Cell division cycle 7-related protein kinase, sequence (O00311 whole entry): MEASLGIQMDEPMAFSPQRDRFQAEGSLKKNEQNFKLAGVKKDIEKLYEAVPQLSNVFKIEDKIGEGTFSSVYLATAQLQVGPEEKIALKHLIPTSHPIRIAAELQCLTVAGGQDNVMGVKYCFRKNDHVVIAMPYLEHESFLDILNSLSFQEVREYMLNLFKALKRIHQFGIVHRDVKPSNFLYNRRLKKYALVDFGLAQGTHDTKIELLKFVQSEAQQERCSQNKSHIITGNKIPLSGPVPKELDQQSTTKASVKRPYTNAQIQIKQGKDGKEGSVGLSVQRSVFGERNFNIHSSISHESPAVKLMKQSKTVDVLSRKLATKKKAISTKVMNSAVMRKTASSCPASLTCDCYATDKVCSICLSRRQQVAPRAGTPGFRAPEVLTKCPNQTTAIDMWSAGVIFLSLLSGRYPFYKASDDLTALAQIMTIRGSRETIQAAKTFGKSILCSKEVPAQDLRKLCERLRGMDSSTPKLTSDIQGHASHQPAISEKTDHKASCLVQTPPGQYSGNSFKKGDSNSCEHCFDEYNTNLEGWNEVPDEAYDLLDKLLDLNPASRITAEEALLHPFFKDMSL

Consider `Nc1n[nH]c2ccc(-c3cc(Cc4ccccc4)no3)cc12`, for which the inhibition constant Ki is 6.31 µM (active) in assay [1]; > 10 µM (inactive) in [2]; 1 µM (active) in assay [3]; 0.158 µM (active) in [4]; 0.316 µM (active) in assay [5]; 1.58 µM (active) in assay [6]. The inhibition constant Ki is 0.0316 µM (active) in [7], 0.01 µM (active) in assay [8] and 0.501 µM (active) in assay [9].
As to `Cc1cc(NS(=O)(=O)c2ccc(NC(=O)c3ccc(Cl)cc3Cl)cc2)no1`, the IC50 is 5.81 µM (active) in assay [10] and 4.47 µM (active) in [11].
In the case of `CCOc1ccc(C(=O)CC(C(=O)O)c2cn(C)c3ccccc23)cc1` (stereo not drawn), the EC50 in [12] was > 100 µM (inactive).
On to `O=C(On1c(-c2ccccc2)nc2ccccc2c1=O)c1ccco1`, for which the IC50 was 4.57 µM (active) in assay [10] and 8.91 µM (active) in assay [11]. Further, the EC50 in assay [13] was > 50 µM (active).
Take `COc1cc2c(cc1NC(=O)COC(=O)CNS(=O)(=O)c1ccc(C)cc1)oc1ccccc12`: the IC50 (on Melanocortin receptor 4; in assay [14]) was > 64.6 µM (inactive) throughout.
With `Cc1ccc(S(=O)(=O)NCC(=O)OCc2nnc(-c3ccccc3)o2)cc1`, the IC50 (at Melanocortin receptor 4; in [14]) was > 64.6 µM (inactive) each time.
Take `CCN(CC(=O)Nc1c(F)cccc1F)C(=O)CCc1nc2sc3c(c2c(=O)[nH]1)CCCC3`: the IC50 in [15] is > 100 µM (inactive); in assay [16], 4.4 µM (active); at Prothrombin, 85.3 µM (active); in [17] it was 19.9 µM (active).
Regarding `CCCCNc1c(-c2ccc(SC(C)CC)cc2)nc2cnccn12` (stereo not drawn), the IC50 in the assay on HEK293 [18] is 27.4 µM (inactive); in [19] it was 63.1 µM (active). In addition, the values for the EC50 on Insulin-degrading enzyme [20], in the assay on HEK293 [21] and on Insulin-degrading enzyme [22] were > 54.7 µM (inactive), > 55.9 µM (inactive) and > 54.7 µM (inactive), respectively.

The record behind these values is ChEMBL document CHEMBL1201862, “PubChem BioAssay data set” (2004).
